Reference: patent publication US6620841B1, “Aromatic heterocycle compounds having HIV integrase inhibiting activities” (Shionogi & Co., Ltd., priority 1998, dated 2003)
Converted amounts (≈) assume the structure as drawn. Where two headings read alike, the source gives them in different places.

Experiments:
Assay type in all cases: cell-based
SIVmac MA239 = assay: Anti-HIV/SIV activity in infected Molt-4 cells, virus amount by RT activity; details: RT activity of supernatant at 5 days postinfection
Experimental: (§1) (1) Molt-4 cells (2×10^6 cells) were infected with HIV-1 NL432 (4×10^6 cpm), HIV-2 Rod (8×10^6 cpm), SIVmac MA239 (8×10^6 cpm) and SIVagm SA212 (8×10^6 cpm), and incubated for 1 hr at room temperature.
(§2) (3) Preparation of SIVmac MA239: SW480 cells were cultured in DMEM medium supplemented with 10% fetal bovine serum using 25 cm^2 flask. SIVmac MA239 infectious molecular DNA (40 μg), pMA239, transfected to the cells by calcium phosphate coprecipitation method, and the supernatant (2 ml) at 2-3 days post-transfection was infected to CEMX174 cells (1×10^6 cells). The cells were cultured in 10 ml RPMI medium supplemented with 10% fetal bovine serum in CO2 incubator at 37° C. After apparent giant cells were observed, the cells were removed by centrifugation and then the supernatant was filtrated by 0.45 μm filter, measured RT activity, and stored at −80° C. as SIVmac stock virus.
(§3) (2) The cells were washed twice to remove the viruses and suspended in 10 ml RPMI medium supplemented with 10% fetal bovine serum. The infected cells (100 μl) were plated in 96 well microtiter plates containing with the serial 5 fold dilution of compounds (100 μl) and cultured in CO2 incubator at 37° C.
(§4) (3) The supernatant at 5 days postinfection was harvested and measured the amount of the virus by RT activity.
(§5) Preparation of the solution for RT assay:
(§6) A reaction mixture (90 μl) were contained 50 mM Tris-HCl, pH 8.3, 150 mM KCl, 10 mM MgCl2, 0.1% Nonidet P-40, 10 mM DTT (dithiothreitol), 5 μg/ml poly(rA), 5 μg/ml (dT)12-18 and 1 μCi [^3H] dTTP at final concentration after mixture of a sample (10 μl).
(§7) The procedure of RT assay:
(§8) 1. 10 μl of sample was plated to 3 wells of 96 well microtiter plate (triplicate assay).
(§9) 2. Reaction mixture (90 μl) chilled at 4° C. was added to each well, mixed and then incubate at 37° C. for 3 hrs.
(§10) 3. After incubation, the plate was chilled on ice, and passed through a DEAE-Filtermat using cell harvester. The filter was washed with 4.5% Na2HPO4 (20 sec) and H2O (10 sec).
(§11) 4. The filter was dried at 95° C. for 15 min.
(§12) 5. 10 ml of scintilator was added and sealed.
(§13) 6. Radioactivity was measured by LKB Beta Plate scintillation spectroscopy.
(§14) 7. RT activity (cpm/ml) was calculated from average of three wells.

SIVagm SA212 = assay: as above; details: RT activity of supernatant at 5 days postinfection
Experimental: as §1
(4) Preparation of SIVagm SA212: SW480 cells were cultured in DMEM medium supplemented with 10% fetal bovine serum using 25 cm^2 flask. SIVagm SA212 infectious molecular DNA (40 μg), pSA212, transfected to the cells by calcium phosphate coprecipitation methods, and the supernatant (2 ml) at 2-3 days post-transfection was infected to M8166 cells (1×10^6 cells). The cells were cultured in 10 ml RPMI medium supplemented with 10% fetal bovine serum in CO2 incubator at 37° C. Every 3 days, the cells were separated from the supernatant by centrifugation and continued culture with new medium. The each supernatant was filtrated by 0.45 μm filter, measured RT activity, and stored at −80° C. as SIVagm stock virus.
as §3, §4, §5, §6, §7, §8, §9, §10, §11, §12, §13, §14

HIV-1 NL432 = assay: as above; details: RT activity of supernatant at 5 days postinfection
Experimental: as §1
as §2, with “(1)” for “(3)”, “HIV-1 NL432:” for “SIVmac MA239:”, “HIV-1” for “SIVmac MA239”, “pNL432,” for “pMA239,”, “M8166” for “CEMX174”, “HIV-1” for “SIVmac”
as §3, §4, §5, §6, §7, §8, §9, §10, §11, §12, §13, §14

HIV-2 Rod = assay: as above; details: RT activity of supernatant at 5 days postinfection
Experimental: as §1
(2) Preparation of […] Rod: HIV-2 Rod was infected to M8166 cells (1×10^6 cells). The cells were cultured in 10 ml RPMI medium supplemented with 10% fetal bovine serum in CO2 incubator at 37° C. After apparent giant cells were observed, the cells were removed by centrifugation and then the supernatant was filtrated by 0.45 μm filter, measured RT activity, and stored at −80° C. as HIV-2 stock virus.
as §3, §4, §5, §6, §7, §8, §9, §10, §11, §12, §13, §14

[1] = test system: feline immunodeficiency virus (FIV TM-2 strain); assay: Anti-FIV activity in MYA-1 feline T-cells, virus amount by RT activity; details: FIV TM-2 in MYA-1 cells, RT activity at 10 days postinfection
Experimental: (1) The serial 5 fold diluted samples were plated in 24 well microtiter plate. Feline T-cell lines (MYA-1 cells: 4×10^5 cells/well) and feline immunodeficiency virus (FIV TM-2 strain: 3000 cpm/well) were added to each well. The cells were cultured with 1.5 ml RPMI medium supplemented with 10% fetal bovine serum, 2 μg/ml polybrene, 100 unit/ml human recombinant IL-2 and 50 μM 2-mercaptoethanol in CO2 incubator at 37° C.
1. Preparation of FIV TM-2: FIV TM-2 was infected to MYA-1 cells (1×10^6 cells). The cells were cultured in 10 ml RPMI medium supplemented with 10% fetal bovine serum, 2 μg/ml polybrene, 100 unit/ml human recombinant IL-2 and 50 μM 2-mercaptoethanol in CO2 incubator at 37° C. Every 1-2 days, the cells were separated from the supernatant by centrifugation and continued culture with new medium. Each of the supernatant was filtrated by 0.45 μm filter, measured RT activity, and stored at as −80° C. as FIV stock virus.
(2) Every 1-2 days, the supernatants were measured the amount of the virus by RT activity (as same as experimental example 2).

[2] = Simian immunodeficiency virus, 120 h

Row | EC50 ([1]; Feline immunodeficiency virus, T-cell, 240 h, read-out: EC50) [µg/mL] | EC50 (SIVmac MA239; [2]) [µg/mL] | EC50 (SIVagm SA212; [2]) [µg/mL] | EC50 (HIV-1 NL432; Human immunodeficiency virus 1, 120 h) [µg/mL] | EC50 (HIV-2 Rod; Human immunodeficiency virus 2, 120 h) [µg/mL] | Structure (SMILES) | Anti-HIV/SIV activity EC50, SIVmac (SIVmac MA239) [µg/mL] | Anti-HIV/SIV activity EC50, SIVagm (SIVagm SA212) [µg/mL] | Anti-HIV/SIV activity EC50, HIV-1 NL432 (HIV-1 NL432) [µg/mL] | Anti-HIV/SIV activity EC50, HIV-2 Rod (HIV-2 Rod) [µg/mL] | EC50 [1] [µg/mL]
1 |  |  |  |  |  | Nc1ccn([C@@H]2CS[C@H](CO)O2)c(=O)n1 [3TC] | 0.0091 | 0.022 | 0.0084 | 0.022 | 
2 |  |  |  |  |  | Cc1cn([C@H]2C[C@H](N=[N+]=[N-])[C@@H](CO)O2)c(=O)[nH]c1=O [AZT] | 0.00035 | 0.00036 | 0.00051 | 0.00028 | 0.048 (≈ 0.18 µM)
3 | 0.3 (≈ 0.958 µM) |  |  |  |  | O=C(/C=C(\O)c1nc[nH]n1)c1ccc(Cc2ccc(F)cc2)o1 [I-42, 1-[5-(4-fluorobenzyl)furan-2-yl]-3-hydroxy-3-(1H-1,2,4-triazol-3-yl)-propenone] |  |  |  |  | 
4 |  |  |  |  |  | CC(C)c1nc(COC(N)=O)n(Cc2ccncc2)c1Sc1cc(Cl)cc(Cl)c1 [S-1153] | >4 | 1.5 | 0.00077 | >4 | >5
5 |  |  |  |  |  | Cc1cn([C@H]2C=C[C@@H](CO)O2)c(=O)[nH]c1=O [d4T] | 0.0034 | 0.0045 | 0.0061 | 0.0041 | 
6 |  | > 20 | > 20 | 0.013 (≈ 0.0488 µM) | > 20 | Cc1ccnc2c1NC(=O)c1cccnc1N2C1CC1 [nevirapine] |  |  |  |  | 
